Test results reported in patent publication US9518000B2, “Bicyclo [2.2.1] acid GPR120 modulators” (BRISTOL-MYERS SQUIBB COMPANY, priority 2013, dated 2016).

Target: human GPR120 (Homo sapiens (Human), UniProt Q5NUL3)
Test: GPR120 pERK AlphaScreen SureFire Assay (human GPR120 pERK assay)
Type: cell-based
Conditions: CHOA12 or CHO-K1 cells stably transfected with the short form of human GPR120 receptor; phosphorylated ERK; read-out: EC50 values measured in the human GPR120 pERK assay
Source text: GPR120 activity was monitored by measuring phosphorylation of ERK (pERK), since G protein receptors are known to activate the ERK signaling cascade either directly and/or through recruitment of arrestin that serves as a scaffold for downstream signaling events.
GPR120 pERK AlphaScreen SureFire Assay
The human and mouse GPR120-mediated intracellular phosphorylated ERK assays were established using CHOA12 cells stably transfected with the short form of human or mouse GPR120 receptor. Cells were cultured in growth medium consisting of F-12 media (Invitrogen Cat. #11765) with 5% Charcoal/Dextran FBS (Invitrogen Cat. #12676-029), 500 μg/mL GENETICIN® (Life Technologies Cat. #10131-027) and 250 μg/mL Zeocin (Invitrogen Cat. #R250-01). Cells were cryo preserved at a concentration of 2×10^7 cells/mL, in 90% Charcoal/Dextran FBS and 10% DMSO, and frozen in liquid nitrogen at a low passage number.
For the pERK assay, 2×10^7 cells/mL cryopreserved human and mouse cells were thawed rapidly in a 37° C. water bath and added to a T-225 flask containing 50 mL growth medium. The flasks were placed in a tissue culture incubator overnight (37° C., 5% CO2). The next day, cells were harvested with trypsin (Gibco Cat. #25300-054), resuspended in serum-containing growth medium and counted using a Cellometer and volume adjusted to a concentration of 0.6×10^6 cells/mL. Cells were plated into 384-well clear bottom tissue culture plates (BD Cat. #353962) at 50 μL/well, for a density of 30,000 cells/well using a MULTIDROP® and incubated for 16-18 hours (overnight) at 37° C. with 5% CO2. The next day, cells were serum starved in 30 μL of F-12 media without any serum or antibiotics for 2 hours at 37° C.
Test compounds were 3-fold, 11-point serially diluted in DMSO in a REMP assay plate (Matrix Cat. #4307) by Tecan and 5 μL was transferred into an ECHO source plate (LabCyte Cat. #LC-0200). Cells were then stimulated with 50 nL of compound dilutions using ECHO liquid handler for 7 minutes at 37° C. Compounds ranged from final assay concentrations of 33.33 μM to 0.56 nM.
The media was then dumped and cells lysed with 20 μL of 1× Lysis buffer from the AlphaScreen SureFire Phospho-ERK 1/2 Kit (Perkin Elmer Cat. #6760617M). The lysis buffer was diluted 5-fold with water before use. The plate was agitated on a shaker for 10 minutes after which 2 μL was transferred into a 384-well white proxiplate (Perkin Elmer Cat. #6008289). The SureFire assay reagent mix was prepared by mixing 60 parts Reaction Buffer, 10 parts Activation Buffer, 1 part Donor Beads, 1 part Acceptor Beads (Perkin Elmer Cat. #TGRES10K). 3.5 μL/well of this reagent mix was manually added to the proxiplate with a multichannel pipettor. Plates were spun down at 1000 rpm for 2 minutes, followed by light-protected incubation at room temperature for 2 hours. The plates were read on the Alpha-technology compatible Envision multilabel plate reader using AlphaScreen protocol according to manufacturer's specifications. The agonist effect of compounds was expressed as 100×(average sample-average blank)/(average total−average blank) where sample is the luminescence activity in the presence of test compound, blank is equal to the luminescence activity in the presence of DMSO control and the total is signal induced by 50 μM linolenic acid as reference compound. Activation data for the test compound over a range of concentrations was plotted as percentage activation of the test compound (100%=maximum response). After correcting for background, EC50 values were determined. The EC50 is defined as the concentration of test compound which produces 50% of the maximal response and was quantified using the 4 parameter logistic equation to fit the data.
The human and mouse GPR120-mediated intracellular phosphorylated ERK assays were also established using CHO-K1 cells stably transfected with the short form of human or mouse GPR120 receptor. […]

human GPR120, sequence (Q5NUL3 whole entry): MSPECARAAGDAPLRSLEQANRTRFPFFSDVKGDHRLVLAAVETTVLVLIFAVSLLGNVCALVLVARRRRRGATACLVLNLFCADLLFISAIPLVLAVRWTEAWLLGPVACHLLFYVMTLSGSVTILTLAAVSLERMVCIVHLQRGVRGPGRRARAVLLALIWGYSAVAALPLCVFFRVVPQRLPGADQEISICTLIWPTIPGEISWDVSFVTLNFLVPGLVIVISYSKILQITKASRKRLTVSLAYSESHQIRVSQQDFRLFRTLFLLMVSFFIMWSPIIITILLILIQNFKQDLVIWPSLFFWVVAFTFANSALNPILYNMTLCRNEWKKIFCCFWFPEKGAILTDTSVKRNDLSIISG

Molecule	EC50 [nM]
O=C(O)CCCC12CCC(OCc3ccc(Cl)cc3)(CC1)C2 [Example 24, 4-(4-(4-chloro-benzyloxy)bicyclo[2.2.1]heptan-1-yl) butanoic acid]	2800
O=C(O)CCCC12CCC(OCc3cccc(Oc4ccccc4F)c3)(CC1)C2 [Example 16, 4-(4-(3-(2-fluorophenoxy)benzyloxy)bicyclo[2.2.1]heptan-1-yl) butanoic acid]	640
O=C(O)CCCC12CCC(OCc3cc(OC(F)(F)F)ccc3F)(CC1)C2 [Example 33, 4-(4-(2-fluoro-5-(trifluorometh-oxy)benzyloxy)bicyclo[2.2.1]heptan-1-yl) butanoic acid]	260
O=C(O)CCCC12CCC(OCc3cccc(OC(F)(F)F)c3)(CC1)C2 [Example 26, 4-(4-(3-(trifluoro-methoxy)benzyl-oxy)bicyclo[2.2.1]heptan-1-yl) butanoic acid]	620
O=C(O)CCCC12CCC(OCc3cc(F)ccc3OC(F)(F)F)(CC1)C2 [Example 44, 4-(4-(5-fluoro-2-(trifluorometh-oxy)benzyloxy)bicyclo[2.2.1]heptan-1-yl) butanoic acid]	930
O=C(CCCC12CCC(OCc3cccc(Oc4ccccc4)c3)(CC1)C2)N1CC(O)C1 [Example 85, 1-(3-Hydroxyazetidin-1-yl)-4-(4-((3-phenoxybenzyl)oxy)bicyclo[2.2.1]heptan-1-yl)butan-1-one]	2400
CC(OC12CCC(COCC(=O)O)(CC1)C2)c1cc(F)cc(Oc2ccc(F)cc2)c1 (centres unmarked) [Example 76, 2-((4-(1-(3-fluoro-5-(4-fluorophenoxy)phenyl)ethoxy)bicyclo[2.2.1]heptan-1-yl)methoxy)acetic acid]	3040
O=C(O)CCCC12CCC(OCc3cccc(F)c3F)(CC1)C2 [Example 53, 4-(4-(2,3-difluorobenzyloxy)bicyclo[2.2.1]heptan-1-yl) butanoic acid]	6120
CNC(=O)CCCC12CCC(OCc3cccc(Oc4ccccc4)c3)(CC1)C2 [Example 84, N-Methyl-4-(4-((3-phenoxybenzyl)oxy)bicyclo[2.2.1]heptan-1-yl)butanamide]	3030
Cc1cc(COC23CCC(CCCC(=O)O)(CC2)C3)cc(OC(F)(F)F)c1 [Example 7, 4-(4-(3-methyl-5-(trifluorometh-oxy)benzyloxy)bicyclo[2.2.1]heptan-1-yl) butanoic acid]	230
O=C(O)CCCC12CCC(OCc3cccc(Oc4ccc(F)cc4)c3)(CC1)C2 [Example 17, 4-(4-(3-(4-fluorophenoxy)benzyloxy)bicyclo[2.2.1]-1-yl)butanoic acid]	250
O=C(O)CCCC12CCC(OCc3cc(Cl)ccc3OC(F)(F)F)(CC1)C2 [Example 19, 4-(4-(5-chloro-2-(trifluorometh-oxy)benzyloxy)bicyclo[2.2.1]heptan-1-yl) butanoic acid]	520
O=C(O)CCCC12CCC(OCc3ccccc3Cl)(CC1)C2 [Example 10, 4-(4-(2-chloro-benzyloxy)bicyclo[2.2.1]heptan-1-yl) butanoic acid]	2640
O=C(O)CCCC12CCC(OCc3cccc(Oc4ccc(Cl)cc4)c3)(CC1)C2 [Example 32, 4-(4-(3-(4-chlorophenoxy)benzyloxy)bicyclo [2.2.1]heptan-1-yl) butanoic acid]	590
3-(4-(2-phenoxybenzyloxy) bicyclo[2.2.1]heptan-1-yloxy) propanoic acid [Example 80]	2750
O=C(O)CCCC12CCC(OCc3ccccc3SC(F)(F)F)(CC1)C2 [Example 49, 4-(4-(2-(trifluoro-methylthio)benzyloxy)bicyclo [2.2.1]heptan-1-yl)butanoic acid]	660

Molecule	EC50 [nM]
O=C(O)CCCC12CCC(OCc3ccc(Oc4ccccc4)cc3)(CC1)C2 [Example 58, 4-(4-(4-phenoxy-benzyloxy)bicyclo[2.2.1]heptan-1-yl) butanoic acid]	1720
O=C(O)CCCC12CCC(OCc3ccccc3C(F)(F)F)(CC1)C2 [Example 64, 4-(4-(2-(trifluoro-methyl)benzyloxy)bicyclo[2.2.1]heptan-1-yl) butanoic acid]	1510
O=C(O)CCCC12CCC(OCc3ccc(Cl)c(Cl)c3)(CC1)C2 [Example 11, 4-(4-(3,4-dichlorobenzyl-oxy)bicyclo[2.2.1]heptan-1-yl) butanoic acid]	1090
CS(=O)(=O)NC(=O)CCCC12CCC(OCc3cc(F)ccc3Oc3ccccc3)(CC1)C2 [Example 83, 4-(4-(5-Fluoro-2-phenoxybenzyloxy)bicyclo[2.2.1]heptan-1-yl)-N-(methylsulfonyl) butanamide]	400
O=C(O)COCC12CCC(OCc3cccc(Oc4ccccc4)c3)(CC1)C2 [Example 74, 2-((4-(3-phenoxybenzyloxy)bicyclo[2.2.1]heptan-1-yl)methoxy)acetic acid]	1430
O=C(O)COCC12CCC(OCc3ccccc3Oc3ccccc3)(CC1)C2 [Example 72, 2-((4-(2-Phenoxybenzyloxy)bicyclo[2.2.1]heptan-1-yl)methoxy)acetic acid]	1120
CC1(C)Cc2cc(Cl)cc(COC34CCC(CCC(=O)O)(CC3)C4)c2O1 [Example 71, 3-(4-((5-Chloro-2,2-dimethyl-2,3-dihydrobenzofuran-7-yl)methoxy)bicyclo[2.2.1]heptan-1-yl)propanoic acid]	6640
O=C(O)COCC12CCC(OCc3cc(F)cc(Oc4ccc(F)cc4)c3)(CC1)C2 [Example 75, 2-((4-(3-fluoro-5-(4-fluorophenoxy)benzyloxy)bicyclo[2.2.1]heptan-1-yl)methoxy)acetic acid]	1850
O=C(O)CCCC12CCC(OC3CCc4c(Cl)cc(Cl)cc43)(CC1)C2 (centres unmarked) [Example 9, 4-(4-(4,6-dichloro-2,3-dihydro-1H-inden-1-yloxy)bicyclo[2.2.1]heptan-1-yl) butanoic acid]	600
COc1ccc(COC23CCC(CCCC(=O)O)(CC2)C3)c(OC(F)(F)F)c1 [Example 43, 4-(4-(4-methoxy-2-(trifluoromethoxy)benzyloxy)bicyclo[2.2.1]heptan-1-yl) butanoic acid]	320
COc1ccc(F)c(COC23CCC(CCCC(=O)O)(CC2)C3)c1 [Example 2, 4-(4-(2-fluoro-5-methoxybenzyl-oxy)bicyclo [2.2.1]heptan-1-yl)butanoic acid]	1820
O=C(O)[C@@H]1C[C@H]1CC12CCC(OCc3cc(F)cc(Oc4ccccc4)c3)(CC1)C2 (single isomer, unassigned) [Example 93]	880
COc1cc(COC23CCC(CCCC(=O)O)(CC2)C3)cc(OC)c1 [Example 21, 4-(4-(3,5-dimethoxybenzyl-oxy)bicyclo [2.2.1]heptan-1-yl)butanoic acid]	1920
COc1ccc(COC23CCC(CCCC(=O)O)(CC2)C3)c(F)c1 [Example 42, 4-(4-(2-fluoro-4-methoxybenzyl-oxy)bicyclo[2.2.1]heptan-1-yl) butanoic acid]	9100
O=C(O)COCC12CCC(OCc3cc(Cl)cc(OC(F)(F)F)c3)(CC1)C2 [Example 78, 2-((4-((3-chloro-5-(trifluoromethoxy)benzyl)oxy)bicyclo[2.2.1]heptan-1-yl)methoxy)acetic acid]	940
O=C(O)CCCC12CCC(OCc3cccc(C(F)(F)F)c3)(CC1)C2 [Example 65, 4-(4-(3-(trifluoro-methyl)benzyloxy)bicyclo[2.2.1]heptan-1-yl) butanoic acid]	1270
